# Where two headings read alike, the source gives them in different places.
# Experiments:
# [1] = Drug-drug interaction study of Compound (I) (CTP-543) and itraconazole in healthy volunteers, plasma pharmacokinetics; type: in vivo, human
# alopecia areata = test: Human clinical trials of CTP-543 in patients suffering from alopecia areata; type: in vivo
# [2] = cited from earlier work
# [3] = 12 mg Compound (I) alone (Reference), healthy volunteers, plasma
# [4] = 12 mg Compound (I) with vs without itraconazole
# [5] = 10 mg ruxolitinib with vs without ketoconazole 200 mg twice a day, healthy volunteers
structure (smiles),measurement,setting,value
"[2H]C1([2H])C([C@@H](CC#N)n2cc(-c3ncnc4[nH]ccc34)cn2)C([2H])([2H])C([2H])([2H])C1([2H])[2H] [Compound (I), (R)-3-(4-(7H-pyrrolo[2,3-d]pyrimidin-4-yl)-1H-pyrazol-1-yl)-3-(cyclopentyl-2,2,3,3,4,4,5,5-d8)propanenitrile]",AUC(0-Tlast),[1]; [3],1326.80 ng·h/mL
same,AUC(0-∞),[1]; [3],1332.48 ng·h/mL
same,AUC(0-Tlast),"[1]; 12 mg Compound (I) with itraconazole 200 mg (Test), healthy volunteers, plasma",1679.53 ng·h/mL
same,increase in the AUC as a result of dosing with itraconazole,[1]; [4],~27%
same,increase in the Cmax as a result of dosing with itraconazole,[1]; [4],~13%
same,half-life,[1]; Compound (I) without itraconazole,4.18 h
same,Cmax,"[1]; human, plasma, 12 mg",266 ng/mL
same,half-life,"[1]; human, plasma, 12 mg, read-out: t1/2 (converted)",4.13 h
same,half-life,"[1]; human, plasma, read-out: half-life (converted)",4.62 h
same,hair growth in patients suffering from alopecia areata,alopecia areata,stimulate hair growth
"N#CC[C@H](C1CCCC1)n1cc(-c2ncnc3[nH]ccc23)cn1.O=P(O)(O)O [ruxolitinib, (R)-3-(4-(7H-pyrrolo[2,3-d]pyrimidin-4-yl)-1H-pyrazol-1-yl)-3-cyclopentylpropanenitrile phosphate]",half-life,[2]; 10 mg ruxolitinib dosed with ketoconazole,6.0 h
same,AUC increase as a result of dosing with ketoconazole,[2]; [5],91%
same,Cmax increase as a result of dosing with ketoconazole,[2]; [5],33%
same,half-life,[2]; 10 mg ruxolitinib without ketoconazole,3.7 h

# Reference: patent US12285432B2, “Treatment of hair loss disorders with deuterated JAK inhibitors” (Sun Pharmaceutical Industries, Inc., priority 2021, dated 2025)
